Assay results: patent US20170267986A1, “GENERATION OF MANNOSE-6-PHOSPHATE CONTAINING RECOMBINANT ALPHA-N-ACETYL GLUCOSAMINIDASE” (SHIRE HUMAN GENETIC THERAPIES, INC., priority 2014, published 2017)

Tests used:
Assay type in all cases: biochemical
rhNaglu [1] = molecular target: T1, rhNaglu (Homo sapiens, UniProt P54802); assay: Naglu activity assay with various inhibitors (4MU-GlcNAc fluorescent substrate); settings: added at 0.0625, 0.25, 1, 4 and 8 mM; 37° C., 1 hour, pH 4.5
T1 construct: The N-terminal 23 amino acids are cleaved as the precursor protein enters the endoplasmic reticulum, resulting in a mature form; made in house; host or cells: human fibrosarcoma HT1080 cell clone over-expressing rhNaglu
T1 sequence (P54802 24-743): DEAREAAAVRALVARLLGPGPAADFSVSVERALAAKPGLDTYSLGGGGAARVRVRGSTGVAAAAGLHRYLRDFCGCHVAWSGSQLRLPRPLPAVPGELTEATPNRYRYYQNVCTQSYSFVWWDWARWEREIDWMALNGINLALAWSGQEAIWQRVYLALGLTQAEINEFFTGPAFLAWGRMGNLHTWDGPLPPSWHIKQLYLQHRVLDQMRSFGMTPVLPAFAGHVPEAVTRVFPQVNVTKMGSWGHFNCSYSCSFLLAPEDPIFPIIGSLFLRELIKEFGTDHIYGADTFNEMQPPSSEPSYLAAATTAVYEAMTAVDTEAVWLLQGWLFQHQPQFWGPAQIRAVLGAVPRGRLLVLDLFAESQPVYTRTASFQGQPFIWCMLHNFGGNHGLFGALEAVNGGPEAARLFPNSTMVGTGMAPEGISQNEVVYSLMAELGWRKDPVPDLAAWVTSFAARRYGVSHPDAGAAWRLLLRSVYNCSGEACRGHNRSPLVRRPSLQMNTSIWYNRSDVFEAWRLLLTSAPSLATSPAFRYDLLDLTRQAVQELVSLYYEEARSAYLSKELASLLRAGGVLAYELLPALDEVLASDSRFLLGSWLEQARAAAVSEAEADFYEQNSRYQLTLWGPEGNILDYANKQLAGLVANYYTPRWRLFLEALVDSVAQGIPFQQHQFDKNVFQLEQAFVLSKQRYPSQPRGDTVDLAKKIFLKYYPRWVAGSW
Procedure: A 10 mM stock of Naglu activity substrate solution was prepared by dissolving 5 mg of substrate, i.e., 4-methylumbelliferyl-N-acetyl-α-D-glucosaminide, in 250 μl of 100% DMSO. Naglu activity assay reaction buffer (0.1 M sodium acetate, 0.5 mg/ml BSA, pH 4.5) was then added to bring the volume up to 1318 μl. This 10 mM substrate stock solution was then diluted 10 fold with reaction buffer to make the final 1 mM substrate solution.
Samples and controls were pre-diluted in reaction buffer. 10 μl of each pre-diluted sample/control were applied in duplicate wells on a black clear bottom 96 well plate. 75 μl of 1 mM substrate solution containing various concentrations of inhibitors were added to each well. The plates were sealed with plate sealer and wrapped with aluminum foil. The plates were then placed in a Boekel Jitterbug Microplate Incubator Shaker (Cole-Parmer, Vernon Hills, Ill.) and shaken (setting at #1) at 37° C. for 1 hour. 200 μl of Stop Buffer (0.2 M Glycine, pH 10.7) were then added to all of the wells and fluorescence emission (excitation/emission at 360 nm/460 nm, respectively) was measured using a SpectraMax® Plus M2 plate reader from Molecular Devices (Sunnyvale, Calif.).
To further confirm that rhNaglu could hydrolyze UDP-GlcNAc, we investigated whether UDP-GlcNAc inhibited the hydrolysis by rhNaglu of the fluorescent substrate 4MU-GlcNAc (4-methylumbelliferyl-N-acetyl-α-D-glucosaminide) in a Naglu activity assay. Briefly, UDP-GlcNAc, as well as GlcNAc, UDP-GalNAc and Glucosamine, were added to the Naglu activity assay at 0.0625, 0.25, 1, 4 and 8 mM concentrations. The fluorescence emitted from these samples was compared to control samples only including rhNaglu and 4MU-GlcNAc.

rhNaglu [2] = molecular target: T1, rhNaglu; assay: Naglu substrate analysis: hydrolysis of UDP-sugars by rhNaglu, PAD-HPLC; settings: 0.8 mM UDP-sugar, rhNaglu 2.6 to 2,000 μg/ml, Tris pH 7.15, 37° C., 1 hour
Procedure: Recombinant human Naglu was co-incubated with uridine diphosphate N-acetylglucosamine (UDP-GlcNAc) or uridine diphosphate N-acetyl galactosamine (UDP-GalNAc). UDP-GlcNAc, GlcNAc (N-acetylglucosamine) and UDP-GalNAc were detected using PAD-HPLC (Pulsed Amperometric Detection-High Pressure Liquid Chromatography) that was modified after Chavaroche et al. 2011.
Recombinant human Naglu was dialyzed into Tris buffer (40 mM Tris pH 7.15, 100 mM NaCl, 4 mM MgCl2, and 4 mM MnCl2) and concentrated with VivaSpin® sample concentrators having a 30 kDa cut-off (Viva Products, Inc., Littleton, Mass.). […]
Samples were then subjected to centrifugation at 10,000 rpm, and the resulting supernatants were loaded on PA10 columns and detected by PAD-HPLC (Pulsed Amperometric Detection-High Pressure Liquid Chromatography) (Dionex ICS-3000 Ion Chromatography System (Thermo Fisher Scientific, Inc., Sunnyvale, Calif.)). […] The peak areas for the eluted UDP-GlcNAc were measured, and the reductions of the area under the curve (AUC) in response to increased concentrations of rhNaglu were determined (FIG. 1A). A new peak at 10.7 minutes was detected on the chromatograms of samples treated with concentrations of rhNaglu of 23.4 μg/ml and above. […] The peak areas for the eluted GlcNAc were measured, and the increases of the AUC in response to increased concentrations of rhNaglu were determined (FIG. 1B). […]

rhNaglu [3] = molecular target: T1, rhNaglu; assay: Isothermal titration calorimetry (ITC) of UDP-GlcNAc hydrolysis by rhNaglu; settings: preliminary ITC data
Source text: The reduction of the UDP-GlcNAc substrate in the samples containing rhNaglu (FIG. 3A) and the formation of the reaction product GlcNAc in the samples containing rhNaglu (FIG. 3B) was apparent. The reductions of UDP-GlcNAc and the formation of GlcNAc were dependent on the initial concentration of UDP-GlcNAc in the reaction sample.

## uridine diphosphate N-acetylglucosamine [UDP-GlcNAc]
rhNaglu [1]
  inhibition of rhNaglu activity toward 4MU-GlcNAc: Inhibition
rhNaglu [2]
  hydrolysis by rhNaglu: hydrolyses
rhNaglu [3]
  Km of hydrolysis by rhNaglu: milimolar range
